Target: T1, 5-LO (Rattus norvegicus, UniProt P12527)
T1 construct: liberation of LTB4 induced by zymosan within an air pouch generated within the subcutaneous tissue of the back of male rats; endogenous in cells; host or cells: cells in the air pouch of living male rats (in vivo)
T1 sequence (P12527 1-673): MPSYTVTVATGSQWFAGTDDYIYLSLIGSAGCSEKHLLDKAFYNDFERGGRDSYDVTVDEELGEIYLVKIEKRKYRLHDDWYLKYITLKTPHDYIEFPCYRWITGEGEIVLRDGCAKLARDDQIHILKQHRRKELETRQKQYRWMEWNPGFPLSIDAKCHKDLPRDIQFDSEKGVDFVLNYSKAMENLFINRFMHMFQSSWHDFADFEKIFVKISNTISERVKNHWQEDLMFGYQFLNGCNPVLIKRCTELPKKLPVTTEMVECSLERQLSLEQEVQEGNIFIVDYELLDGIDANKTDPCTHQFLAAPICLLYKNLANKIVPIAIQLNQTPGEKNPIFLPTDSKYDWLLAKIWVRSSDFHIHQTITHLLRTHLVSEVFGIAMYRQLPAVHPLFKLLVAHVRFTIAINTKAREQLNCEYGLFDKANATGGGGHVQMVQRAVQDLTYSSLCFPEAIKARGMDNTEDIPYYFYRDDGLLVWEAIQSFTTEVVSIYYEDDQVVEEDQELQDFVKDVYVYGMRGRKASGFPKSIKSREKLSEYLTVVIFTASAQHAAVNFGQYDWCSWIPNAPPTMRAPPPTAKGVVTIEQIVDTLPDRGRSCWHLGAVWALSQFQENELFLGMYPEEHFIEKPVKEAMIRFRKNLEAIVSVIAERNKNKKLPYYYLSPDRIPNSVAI
Assay: Test g) zymosan-induced liberation of LTB4 within an air pouch in male rats
Format: in vivo
Settings: rat, 3 h; test g), oral
Description: g) An in vivo system involving measuring the effects of a test compound administered orally against the liberation of LTB4 induced by zymosan within an air pouch generated within the subcutaneous tissue of the back of male rats. The rats are anaesthetised and air pouches are formed by the injection of sterile air (20 ml). A further injection of air (10 ml) is similarly given after 3 days. At 6 days after the initial air injection the test compound is administered (usually orally as the suspension produced when a solution of the test compound in dimethylsulphoxide is added to hydroxypropylmethylcellulose), followed by the intrapouch injection of zymosan (1 ml of a 1% suspension in physiological saline). After 3 hours the rats are killed, the air pouches are lavaged with physiological saline, and the specific radioimmunoassay described above is used to assay LTB4 in the washings. This test provides an indication of inhibitory effects against 5-LO in an inflammatory milieu.

ED50: < 2 mg/kg
SMILES: COC1(c2cccc(Sc3ccc4c(c3)n(C)c(=O)n4C)c2)CCOCC1 [Example 1, 4-[3-(1,3-dimethyl-2-oxo-2,3-dihydrobenzimidazol-5-ylthio)phenyl]-4-methoxytetrahydropyran]

— US5364877A, “Indole derivatives as 5-lipoxygenase inhibitors” (ICI Pharma, priority 1990, dated 1994)
